{"source": "patent US8632759B2", "about": "“Hair restorer” (Cosmo Oil Co., Ltd., priority 2004, dated 2014)", "system": "C3H/HeNCrJ mice", "experiment": "Hair growth test on clipped backs of mice", "assay_type": "in vivo", "conditions": "C3H/HeNCrJ mice in telogen phase, n=3; 0.2 ml sprayed on clipped back once a day; hair measured under microscope", "excerpt": "In Table 1,5-aminolevulinic acid (sometimes abbreviated as ALA) of the present invention and iron compounds, and the blend compositions of them and urea are shown in wt %. For 1 g of ALA, 0.4 g of ferrous citrate, 2.81 g of iron lactate, 5.7 g of iron sodium diethylenetriaminepentaacetate, 5.6 g of iron ammonium diethylenetriaminepentaacetate, and 0.36 g of ferrous gluconate were blended respectively. The body hair on the backs of C3H/HeNCrJ mice (n=3 in each group), which were in telogen phase of hair growth cycle, was clipped with a hair clipper, and each suspension shown in Table 1 was applied to the back once a day, in an amount of 0.2 ml, by spraying uniformly.\nIn addition, photographs of the backs of mice on which the sample No. 8 of the present invention, 5% minoxidil (positive control), and distilled water (negative control) were respectively applied were taken 20 days after the application."}
{"smiles": "Nc1cc(N2CCCCC2)nc(N)[n+]1[O-]", "note": "[5% Minoxidil, 6-(1-piperidinyl)-2,4-pyrimidinediamine-3-oxide]", "values": [{"measurement": "Hair Length after 2 weeks", "value": 1.70, "unit": "mm"}]}
{"smiles": "NCC(=O)CCC(=O)O", "note": "[Control, 5-aminolevulinic acid]", "values": [{"measurement": "Hair Length after 2 weeks", "value": 1.08, "unit": "mm"}]}
